Data as given in patent US8575158B2, “1-phenyl-substituted heterocyclyl derivatives and their use as prostaglandin D2 receptor modulators” (Actelion Pharmaceuticals Ltd., priority 2010, dated 2013).

Target: T1, hCRTH2 receptor (Homo sapiens, UniProt Q9Y5Y4)
T1 construct: expressed in transfected cells; host or cells: HEK293
T1 sequence (Q9Y5Y4 1-395): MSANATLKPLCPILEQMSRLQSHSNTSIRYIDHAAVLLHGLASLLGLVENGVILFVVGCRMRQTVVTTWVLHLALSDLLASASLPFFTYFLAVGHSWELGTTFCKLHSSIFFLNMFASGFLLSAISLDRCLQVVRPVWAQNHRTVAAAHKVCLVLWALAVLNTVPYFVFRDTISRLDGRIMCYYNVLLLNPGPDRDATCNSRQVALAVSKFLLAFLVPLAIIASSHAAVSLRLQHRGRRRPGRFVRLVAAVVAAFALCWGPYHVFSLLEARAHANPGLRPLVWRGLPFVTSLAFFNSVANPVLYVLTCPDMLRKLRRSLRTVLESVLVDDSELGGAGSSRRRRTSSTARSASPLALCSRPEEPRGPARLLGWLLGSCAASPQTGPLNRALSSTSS
Experiment: Radioligand displacement assay (3H-PGD2) on hCRTH2 receptor membranes
Assay type: binding
Conditions: antagonistic activity; 3H-PGD2 displacement on HEK293-hCRTH2 membrane fragments

IC50 [µM] | SMILES
0.0422 | O=C(O)COc1ccc(F)cc1C1c2ccccc2CCN1C(=O)Cc1ccc2ccccc2c1 (racemic) [Example 135, (±)-{4-Fluoro-2-[2-(2-naphthalen-2-yl-acetyl)-1,2,3,4-tetrahydro-isoquinolin-1-yl]-phenoxy}-acetic acid]
0.119 | Cc1ccccc1OCC(=O)N1CCc2ccccc2C1c1cc(F)ccc1OCC(=O)O (racemic) [Example 136, (±)-{4-Fluoro-2-[2-(2-o-tolyloxy-acetyl)-1,2,3,4-tetrahydro-isoquinolin-1-yl]-phenoxy}-acetic acid]
0.314 | Cn1cc(CC(=O)N2CCc3ccccc3C2c2cc(F)ccc2OCC(=O)O)c2ccccc21 (racemic) [Example 137, (±)-(4-Fluoro-2-{2-[2-(1-methyl-1H-indol-3-yl)-acetyl]-1,2,3,4-tetrahydro-isoquinolin-1-yl}-phenoxy)-acetic acid]
0.101 | O=C(O)COc1ccc(F)cc1C1c2ccccc2CCN1C(=O)COc1ccccc1Cl (racemic) [Example 138, (±)-(2-{2-[2-(2-Chloro-phenoxy)-acetyl]-1,2,3,4-tetrahydro-isoquinolin-1-yl}-4-fluoro-phenoxy)-acetic acid]
0.233 | O=C(O)COc1ccc(F)cc1C1c2ccccc2CCN1C(=O)CCc1ccccc1F (racemic) [Example 139, (±)-(4-Fluoro-2-{2-[3-(2-fluoro-phenyl)-propionyl]-1,2,3,4-tetrahydro-isoquinolin-1-yl}-phenoxy)-acetic acid]
0.0364 | O=C(O)COc1ccc(F)cc1C1c2ccccc2CCN1C(=O)CC1Cc2ccccc2C1 (racemic) [Example 140, (±)-{4-Fluoro-2-[2-(2-indan-2-yl-acetyl)-1,2,3,4-tetrahydro-isoquinolin-1-yl]-phenoxy}-acetic acid]
0.835 | O=C(O)COc1ccc(F)cc1C1c2ccccc2CCN1C(=O)/C=C/c1ccccc1F (racemic) [Example 141, (±)-(4-Fluoro-2-{2-[(E)-3-(2-fluoro-phenyl)-acryloyl]-1,2,3,4-tetrahydro-isoquinolin-1-yl}-phenoxy)-acetic acid]
0.349 | Cc1ccccc1/C=C/C(=O)N1CCc2ccccc2C1c1cc(F)ccc1OCC(=O)O (racemic) [Example 142, (±)-{4-Fluoro-2-[2-((E)-3-o-tolyl-acryloyl)-1,2,3,4-tetrahydro-isoquinolin-1-yl]-phenoxy}-acetic acid]
0.395 | O=C(O)COc1ccc(F)cc1C1c2ccccc2CCN1C(=O)CCCCc1ccccc1 (racemic) [Example 143, (±)-{4-Fluoro-2-[2-(5-phenyl-pentanoyl)-1,2,3,4-tetrahydro-isoquinolin-1-yl]-phenoxy}-acetic acid]
0.0739 | O=C(O)COc1ccc(F)cc1C1c2ccccc2CCN1C(=O)CCOc1ccccc1 (racemic) [Example 144, (±)-{4-Fluoro-2-[2-(3-phenoxy-propionyl)-1,2,3,4-tetrahydro-isoquinolin-1-yl]-phenoxy}-acetic acid]
0.983 | CS(=O)(=O)c1ccc(CCC(=O)N2CCc3ccccc3C2c2cc(F)ccc2OCC(=O)O)cc1 (racemic) [Example 145, (±)-(4-Fluoro-2-{2-[3-(4-methanesulfonyl-phenyl)-propionyl]-1,2,3,4-tetrahydro-isoquinolin-1-yl}-phenoxy)-acetic acid]
0.0613 | O=C(O)COc1ccc(F)cc1C1c2ccccc2CCN1C(=O)CCN1CCc2ccccc21 (racemic) [Example 146, (±)-{2-[2-(3-2,3-Dihydro-indol-1-yl-propionyl)-1,2,3,4-tetrahydro-isoquinolin-1-yl]-4-fluoro-phenoxy}-acetic acid]
0.0576 | Cc1ccccc1OCCC(=O)N1CCc2ccccc2C1c1cc(F)ccc1OCC(=O)O (racemic) [Example 147, (±)-{4-Fluoro-2-[2-(3-o-tolyloxy-propionyl)-1,2,3,4-tetrahydro-isoquinolin-1-yl]-phenoxy}-acetic acid]
0.132 | O=C(O)COc1ccc(F)cc1C1c2ccccc2CCN1C(=O)COc1ccccc1F (racemic) [Example 148, (±)-(4-Fluoro-2-{2-[2-(2-fluoro-phenoxy)-acetyl]-1,2,3,4-tetrahydro-isoquinolin-1-yl}-phenoxy)-acetic acid]
0.0427 | COc1ccccc1CCCC(=O)N1CCc2ccccc2C1c1cc(F)ccc1OCC(=O)O (racemic) [Example 149, (±)-(4-Fluoro-2-{2-[4-(2-methoxy-phenyl)-butyryl]-1,2,3,4-tetrahydro-isoquinolin-1-yl}-phenoxy)-acetic acid]
0.00616 | O=C(O)COc1ccc(F)cc1C1c2ccccc2CCN1C(=O)COCc1ccccc1Cl (racemic) [Example 150]
0.0453 | O=C(O)COc1ccc(Cl)cc1C1c2ccccc2CCN1C(=O)[C@@H]1C[C@H]1c1ccc(Cl)cc1 (mixture of isomers) [Example 157]
0.0376 | O=C(O)COc1ccc(Cl)cc1C1c2ccccc2CCN1C(=O)[C@@H]1C[C@H]1c1ccc(Cl)cc1Cl (mixture of isomers) [Example 158]
0.0212 | COc1ccccc1[C@@H]1C[C@H]1C(=O)N1CCc2ccccc2C1c1cc(Cl)ccc1OCC(=O)O (mixture of isomers) [Example 159]
0.0164 | O=C(O)COc1ccc(Cl)cc1C1c2ccccc2CCN1C(=O)[C@@H]1C[C@H]1c1ccccc1F (mixture of isomers) [Example 160]
0.116 | O=C(O)COc1ccc(Cl)cc1C1c2ccccc2CCN1C(=O)CCc1cnnn1-c1ccccc1 (racemic) [Example 161]
0.115 | O=C(O)COc1ccc(Cl)cc1C1c2ccccc2CCN1C(=O)CSc1cnnn1-c1ccccc1 (racemic) [Example 162]

IC50 [µM] | SMILES
0.00421 | O=C(O)COc1ccc(F)cc1C1c2ccc(F)cc2CCN1C(=O)OCc1ccccc1 (racemic) [Example 163]
0.00094 | O=C(O)COc1ccc(Cl)cc1C1c2ccccc2CCN1C(=O)OCc1ccccc1Cl (racemic) [Example 164]
0.005 | O=C(O)COc1ccc(F)cc1C1c2ccccc2CCN1C(=O)OCc1ccccc1Cl (racemic) [Example 165]
0.12 | CC(C)(C)COC(=O)N1CCc2ccccc2C1c1cc(F)ccc1OCC(=O)O (racemic) [Example 166]
0.042 | CCCCOC(=O)N1CCc2ccccc2C1c1cc(F)ccc1OCC(=O)O (racemic) [Example 167]
0.109 | COc1ccccc1OC(=O)N1CCc2ccccc2C1c1cc(F)ccc1OCC(=O)O (racemic) [Example 168]
0.451 | O=C(O)COc1ccc(F)cc1C1c2ccccc2CCN1C(=O)Oc1ccccc1 (racemic) [Example 169]
0.169 | O=C(O)COc1ccc(F)cc1C1c2ccccc2CCN1C(=O)Oc1ccccc1Cl (racemic) [Example 170]
0.0477 | CC(C)COC(=O)N1CCc2ccccc2C1c1cc(F)ccc1OCC(=O)O (racemic) [Example 171]
0.0598 | COCCOC(=O)N1CCc2ccccc2C1c1cc(F)ccc1OCC(=O)O (racemic) [Example 172]
0.102 | COc1ccc(OC(=O)N2CCc3ccccc3C2c2cc(F)ccc2OCC(=O)O)cc1 (racemic) [Example 173]
0.00875 | O=C(O)COc1ccc(Cl)cc1C1c2cccc(F)c2CCN1C(=O)OCc1ccccc1Cl (racemic) [Example 175]
0.0104 | O=C(O)COc1ccc(Cl)cc1C1c2ccccc2CCN1C(=O)OCCc1ccccc1Cl (racemic) [Example 176, (±)-1-(2-Carboxymethoxy-5-chloro-phenyl)-3,4-dihydro-1H-isoquinoline-2-carboxylic acid 2-(2-chloro-phenyl)-ethyl ester]
0.0275 | O=C(O)COc1ccc(F)cc1C1c2ccccc2CCN1C(=O)OCCc1ccccc1Cl (racemic) [Example 177, (±)-1-(2-Carboxymethoxy-5-fluoro-phenyl)-3,4-dihydro-1H-isoquinoline-2-carboxylic acid 2-(2-chloro-phenyl)-ethyl ester]
0.687 | O=C(O)COc1ccc(F)cc1C1c2ccccc2CCN1C(=O)Oc1cccc(Cl)c1 (racemic) [Example 178, (±)-1-(2-Carboxymethoxy-5-fluoro-phenyl)-3,4-dihydro-1H-isoquinoline-2-carboxylic acid 3-chloro-phenyl ester]
0.0395 | O=C(O)COc1ccc(Cl)cc1C1c2cccc(F)c2CCN1C(=O)OCCc1ccccc1Cl (racemic) [Example 179, (±)-1-(2-Carboxymethoxy-5-chloro-phenyl)-5-fluoro-3,4-dihydro-1H-isoquinoline-2-carboxylic acid 2-(2-chloro-phenyl)-ethyl ester]
0.151 | CC1(C)CN(C(=O)OCc2ccccc2)C(c2cc(Cl)ccc2OCC(=O)O)c2ccccc21 (racemic) [Example 180, (±)-1-(2-Carboxymethoxy-5-chloro-phenyl)-4,4-dimethyl-3,4-dihydro-1H-isoquinoline-2-carboxylic acid benzyl ester]
0.572 | CCS(=O)(=O)c1ccc2c(c1)C(c1cc(F)ccc1OCC(=O)O)N(C(=O)OCc1ccccc1)CC2 (racemic) [Example 181]
0.308 | CS(=O)(=O)c1ccc(OCC(=O)O)c(C2c3ccccc3CCN2C(=O)OCc2ccccc2)c1 (racemic) [Example 182]
0.064 | O=C(O)COc1ccc(S(=O)(=O)c2ccccc2)cc1C1c2ccccc2CCN1C(=O)OCc1ccccc1 (racemic) [Example 183]
0.346 | CCS(=O)(=O)c1ccc(OCC(=O)O)c(C2c3ccccc3CCN2C(=O)OCc2ccccc2)c1 (racemic) [Example 184]
0.0787 | CS(=O)(=O)c1cccc2c1CCN(C(=O)OCc1ccccc1)C2c1cc(F)ccc1OCC(=O)O (racemic) [Example 185]
